# Experimental data from US20050076943A1, “Thermoelectric sensor” (priority 2001, published 2005).
# What was measured:
# brown adipocytes = experiment: Thermogenic response (heat output) of cultured brown adipocytes on the thermoelectric sensor; assay type: cell-based
# Experimental: Brown adipocytes. Brown adipose tissue (BAT) was dissected from the interscapular, subscapular and the axillary regions of four 4-week-old male Naval Medical Research Institute (NMRI) mice. Pre-adipocytes were isolated and seeded in three 30 mm culture dishes and incubated in medium containing sodium bicarbonate (3.7 g/l) under 8% CO2 atmosphere for 6 days, after which time they were harvested. The culture medium based on DMEM with pH 7.4, was modified with 10% foetal calf serum, 20 nM insulin, 1 nM triiodothyronin (T3), 25 μg/ml Na-ascorbate, 4 mM glutamine, 10 mM HEPES, 50 IU/ml penicillin and 50 μg/ml streptomycin. Insulin was required for the expression of mitochondrial uncoupling protein (UCP) whereas the presence of T3 increased the thermogenic response due to more β-adrenergic receptors on the cells. All chemicals were supplied from Sigma-Aldrich and ICN Biomedicals Inc.
# (§1) Experimental Set-up: The sensor chip used in the experiment (FIG. 1) was connected to the custom-made low noise preamplifier, which was positioned within 1 cm of the sensor chip in order to reduce attenuation of the voltage signal and minimise interference. The chip-holder was connected to the amplifier through a gold plated 2.54 mm (0.1 inch) pitch PCB edge connector (gold was used consistently in all contacts to avoid the creation of additional thermocouple junctions between the sensor output and the amplifier input). A transparent chamber enclosed the sensor from the surrounding air to eliminate rapid temperature changes. Water (37° C. or 25° C.), maintained at a constant temperature, was circulated through a 1 ml chamber integrated as part of the copper base plate. Both amplifier and sensor were positioned under a stereo-microscope for the manipulation and positioning of cells, injection of drugs and visual observation throughout the experiment,. The attachment of cells on the thermopile was enhanced by pre-treating the sensor surface with poly-L-lysine, adsorbed from a 0.01% solution in buffer.
# The cell chamber was first covered with a 0.5 μL drop of culture medium with a subsequent addition of 15 μL liquid paraffin (mineral oil) in order to prevent evaporation of the medium. Re-suspended adipocytes (or cardiomyocytes) were positioned on top of the sensing junctions using a micropipette and micromanipulator (FIG. 3a, b, c). Excess medium was removed from the titre chamber leaving a total volume of 700 pL.
# Measurements of heat output from cells were made with the cell chamber filled with 700 pL of culture medium and overlain with a layer of mineral oil to prevent evaporation. The device was held at a constant temperature of either 25° C. or 37° C. In the absence of cells there was no response from the thermopile to the injection of 10 pL of culture medium, nor to 10 pL culture medium containing a final concentration of 1.4 μM NE (see FIG. 4). […] The magnitude of the response was consistent with published values from populations of cells, where above-threshold levels of NE activation induced a ten-fold increase in oxygen consumption.
# single mouse liver cell = settings: H2O2 initial concentration 14 mM, 700 pL, n=3
# Excerpt: The culture medium (pH 7.4) required to accommodate the cell occupied the full volume of the reaction vessel, and was considered to have the same thermodynamic properties as water. […] The heat conductance for a single cell system would be 80 μW/K with a heat capacity of 1 μJ/K.
# Subsequently a mouse liver cell was positioned by a micromanipulator and immobilised on top of the temperature sensors in the reaction vessel with the aid of Cell-Tak tissue adhesive ensuring good thermal contact between the cell and sensor surface. H2O2 was then microinjected to yield an initial concentration of 14 mM after 200 seconds of the experiment commencing. The slightly altered pH value of the medium has minimal effect on the catalase activity. […] The short time constant for thermal equilibrium of the sensor (12 ms) compared to the long time duration of the measured signal (100 s), excludes a temperature difference in the injected solution as the cause of the measured temperature change.
# [1] = tested on: rabbit ventricular cardiomyocytes; experiment: Heat output from isolated cardiac myocytes challenged with a mitochondrial uncoupler; assay type: cell-based; settings: CCCP 14 μM final concentration, n=5
# Experimental: Cardiomyocytes. Isolated cells were obtained from adult rabbit left ventricle by collagenase digestion and kept in Base Krebs Solution, containing: 120 mM NaCl, 20 mM sodium N-hydroxyethylpiperazine-N′-2-ethane sulphonic acid (HEPES), 5.4 mM KCl, 0.52 mM NaH2PO4, 3.5 mM MgCl2.6 H2O, 20 mM taurine, 10 mM creatine, 11.1 mM glucose, 0.1% bovine serum albumin (BSA), pH 7.4. Cells were transferred to the sensor chips using a pipette (manual or robotic instrument) and placed onto the thermocouple junctions.
# as §1, with “Both amplifier and sensor were positioned under a stereo-microscope for the manipulation and positioning of cells, injection of drugs and visual observation throughout the experiment,. The attachment of cells on the thermopile was enhanced by pre-treating the sensor surface with poly-L-lysine, adsorbed from a 0.01% solution in buffer.” left out
smiles,measurement,setting,value
"NC[C@H](O)c1ccc(O)c(O)c1 [NE, noradrenaline]",time to maximum value of heat production,brown adipocytes; 1.4 μM NE final concentration (saturated thermogenic response),≤ 2 min
same,duration for which heat output was sustained,"brown adipocytes; NE-stimulated cells, 1.4 μM",at least 20 minutes
same,average power output per cell,"brown adipocytes; brown adipocytes, 1.4 μM NE final concentration, n=5",1.63 nW per cell
same,"average power output, thermogenic response from groups of 10 NE-stimulated cells","brown adipocytes; groups of 10 brown adipocytes, 1.4 μM NE final concentration, 700 pL chamber, n=5",16.3 nW
"OO [H2O2, Hydrogen peroxide]","generated power, maximum signal change",single mouse liver cell,38.2 nW
"N#CC(C#N)=NNc1cccc(Cl)c1 [CCCP, carbonyl cyanide m-chlorophenyl hydrazone]",heat production per cell,[1],1.71 nW per cell
same,mean change in signal,[1]; within three minutes,136 μK
C=C(C)[C@H]1Cc2c(ccc3c2O[C@@H]2COc4cc(OC)c(OC)cc4[C@@H]2C3=O)O1 [rotenone],delay before temperature response began to return to basal level,"brown adipocytes; NE-stimulated brown adipocytes, rotenone 14 μM final concentration",3 min
same,time for temperature response to return to basal level,"brown adipocytes; NE-stimulated brown adipocytes, rotenone 14 μM final concentration, after the delay",≤ 5 min
